The data set can be described thus: recombinant UMI read abundance after kanamycin selection (control-corrected) (log10(CPM+1)); higher = more efficient recombination; extreme values may be limits of the assay; sequences stand for … in AGTGCAGAGAAAATCGGCCAGTTTTCTCTGCCTGCAGTCCGCATGCCGTGGGACCCCTTGGGTTCTAACCTGTTGCCTAGATTTATGCAGCGGACTGCCTTTCTCCCAAAGTGATAAACCGG…AGGTTGGTTTCACT; site = the 11-nt donor. Summed up: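 Sequencing read counts were converted to CPM, averaged over two replicates and scaled by control-derived factors. Results are given as log10(CPM+1). The reads covered the donor–target junction of recombinant UMIs from a pooled Escherichia coli screen of donor and donor-binding-loop pairs for the IS621 bridge recombinase.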
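Also: IS621 bridge recombinase in Escherichia coli cells against a fixed T5 target plasmid.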

As for “TGGTTCCCATGGACCGGTTTTCCCGGTAATCCGTATTTGTG (site TGGTTCCCTCA)”, the “recombinant UMI read abundance (log10)” value turned out to be 0.0117.

For the sequence “TGGTTGACATGGACCGGTTTTCCCGGTAATCCGTATTTGTA (site TGGTTGACTTA)”, the “recombinant UMI read abundance (log10)” value was found to be 1.04.

As to “TGGTTTCCATGGACCGGTTTTCCCGGTAATCCGTATTTGGG (site TGGTTTCCTCC)”, the “recombinant UMI read abundance (log10)” value came to 0.327.

As for “TGTACACCATGGACCGGTTTTCCCGGTAATCCGTATTTGAC (site AGTACACCTGT)”, the “recombinant UMI read abundance (log10)” value was found to be 0.

On to “TGTACACCATGGACCGGTTTTCCCGGTAATCCGTATTTGAC (site CGTACACCTGT)”, for which the “recombinant UMI read abundance (log10)” value was 0.

For “TGTACACCATGGACCGGTTTTCCCGGTAATCCGTATTTGAC (site GGTACACCTGT)”, the “recombinant UMI read abundance (log10)” value was 0.

As for “TGTACACCATGGACCGGTTTTCCCGGTAATCCGTATTTGAC (site TATACACCTGT)”, the “recombinant UMI read abundance (log10)” value came out at 0.

For the sequence “TGTACACCATGGACCGGTTTTCCCGGTAATCCGTATTTGAC (site TCTACACCTGT)”, the “recombinant UMI read abundance (log10)” value was found to be 0.

Turning to “TGTACACCATGGACCGGTTTTCCCGGTAATCCGTATTTGAC (site TGAACACCTGT)”, the “recombinant UMI read abundance (log10)” value was determined as 0.

With “TGTACACCATGGACCGGTTTTCCCGGTAATCCGTATTTGAC (site TGCACACCTGT)”, the “recombinant UMI read abundance (log10)” value stood at 0.

Regarding “TGTACACCATGGACCGGTTTTCCCGGTAATCCGTATTTGAC (site TGGACACCTGT)”, the “recombinant UMI read abundance (log10)” value was 0.00576.

On to “TGTACACCATGGACCGGTTTTCCCGGTAATCCGTATTTGAC (site TGTAAACCTGT)”, for which the “recombinant UMI read abundance (log10)” value stood at 0.

Consider “TGTACACCATGGACCGGTTTTCCCGGTAATCCGTATTTGAC (site TGTACAACTGT)”, for which the “recombinant UMI read abundance (log10)” value came out at 0.

For the sequence “TGTACACCATGGACCGGTTTTCCCGGTAATCCGTATTTGAC (site TGTACACCTAT)”, the “recombinant UMI read abundance (log10)” value came to 0.0116.

As for “TGTACACCATGGACCGGTTTTCCCGGTAATCCGTATTTGAC (site TGTACACCTCT)”, the “recombinant UMI read abundance (log10)” value turned out to be 0.0222.

For “TGTACACCATGGACCGGTTTTCCCGGTAATCCGTATTTGAC (site TGTACACCTGA)”, the “recombinant UMI read abundance (log10)” value stood at 0.

With “TGTACACCATGGACCGGTTTTCCCGGTAATCCGTATTTGAC (site TGTACACCTGC)”, the “recombinant UMI read abundance (log10)” value was 0.

Consider “TGTACACCATGGACCGGTTTTCCCGGTAATCCGTATTTGAC (site TGTACACCTGG)”, for which the “recombinant UMI read abundance (log10)” value worked out at 0.

For “TGTACACCATGGACCGGTTTTCCCGGTAATCCGTATTTGAC (site TGTACACCTGT)”, the “recombinant UMI read abundance (log10)” value was determined as 0.

On to “TGTACACCATGGACCGGTTTTCCCGGTAATCCGTATTTGAC (site TGTACACCTTT)”, for which the “recombinant UMI read abundance (log10)” value was determined as 0.0141.

In the case of “TGTACACCATGGACCGGTTTTCCCGGTAATCCGTATTTGAC (site TGTACAGCTGT)”, the “recombinant UMI read abundance (log10)” value was 0.

As to “TGTACACCATGGACCGGTTTTCCCGGTAATCCGTATTTGAC (site TGTACATCTGT)”, the “recombinant UMI read abundance (log10)” value worked out at 0.

Turning to “TGTACACCATGGACCGGTTTTCCCGGTAATCCGTATTTGAC (site TGTACCCCTGT)”, the “recombinant UMI read abundance (log10)” value was 0.

For “TGTACACCATGGACCGGTTTTCCCGGTAATCCGTATTTGAC (site TGTACGCCTGT)”, the “recombinant UMI read abundance (log10)” value worked out at 0.

Consider “TGTACACCATGGACCGGTTTTCCCGGTAATCCGTATTTGAC (site TGTACTCCTGT)”, for which the “recombinant UMI read abundance (log10)” value was found to be 0.

With “TGTACACCATGGACCGGTTTTCCCGGTAATCCGTATTTGAC (site TGTAGACCTGT)”, the “recombinant UMI read abundance (log10)” value was 0.

Regarding “TGTACACCATGGACCGGTTTTCCCGGTAATCCGTATTTGAC (site TGTATACCTGT)”, the “recombinant UMI read abundance (log10)” value is 0.

As to “TGTACACCATGGACCGGTTTTCCCGGTAATCCGTATTTGAC (site TGTCCACCTGT)”, the “recombinant UMI read abundance (log10)” value was 0.

For the sequence “TGTACACCATGGACCGGTTTTCCCGGTAATCCGTATTTGAC (site TGTGCACCTGT)”, the “recombinant UMI read abundance (log10)” value came out at 0.

As to “TGTACACCATGGACCGGTTTTCCCGGTAATCCGTATTTGAC (site TGTTCACCTGT)”, the “recombinant UMI read abundance (log10)” value came out at 0.

As for “TGTACACCATGGACCGGTTTTCCCGGTAATCCGTATTTGAC (site TTTACACCTGT)”, the “recombinant UMI read abundance (log10)” value came out at 0.

With “TGTACACCATGGACCGGTTTTCCCGGTAATCCGTATTTGAG (site TGTACACCTAT)”, the “recombinant UMI read abundance (log10)” value is 0.0116.

As for “TGTACACCATGGACCGGTTTTCCCGGTAATCCGTATTTGAG (site TGTACACCTCT)”, the “recombinant UMI read abundance (log10)” value was found to be 0.00855.

For the sequence “TGTACACCATGGACCGGTTTTCCCGGTAATCCGTATTTGAG (site TGTACACCTGT)”, the “recombinant UMI read abundance (log10)” value was 0.

Regarding “TGTACACCATGGACCGGTTTTCCCGGTAATCCGTATTTGAG (site TGTACACCTTT)”, the “recombinant UMI read abundance (log10)” value stood at 0.0116.

As for “TGTACACCATGGACCGGTTTTCCCGGTAATCCGTATTTGGC (site TGTACACCTGA)”, the “recombinant UMI read abundance (log10)” value came out at 0.

“TGTACACCATGGACCGGTTTTCCCGGTAATCCGTATTTGGC (site TGTACACCTGC)”: the “recombinant UMI read abundance (log10)” value worked out at 0.00484.

Turning to “TGTACACCATGGACCGGTTTTCCCGGTAATCCGTATTTGGC (site TGTACACCTGG)”, the “recombinant UMI read abundance (log10)” value amounted to 0.

As to “TGTACACCATGGACCGGTTTTCCCGGTAATCCGTATTTGGC (site TGTACACCTGT)”, the “recombinant UMI read abundance (log10)” value worked out at 0.

In the case of “TGTACGCCATGGACCGGTTTTCCCGGTAATCCGTATTTGAC (site TGTACACCTGT)”, the “recombinant UMI read abundance (log10)” value was determined as 0.

With “TGTACGCCATGGACCGGTTTTCCCGGTAATCCGTATTTGAC (site TGTACCCCTGT)”, the “recombinant UMI read abundance (log10)” value was determined as 0.

With “TGTACGCCATGGACCGGTTTTCCCGGTAATCCGTATTTGAC (site TGTACGCCTGT)”, the “recombinant UMI read abundance (log10)” value amounted to 0.

As for “TGTACGCCATGGACCGGTTTTCCCGGTAATCCGTATTTGAC (site TGTACTCCTGT)”, the “recombinant UMI read abundance (log10)” value was determined as 0.

Regarding “TGTACGCCATGGACCGGTTTTCCCGGTAATCCGTATTTGTA (site TGTACGCCTTA)”, the “recombinant UMI read abundance (log10)” value turned out to be 0.00598.

As for “TGTACTGCATGGACCGGTTTTCCCGGTAATCCGTATTTGCC (site TGTACTGCTGG)”, the “recombinant UMI read abundance (log10)” value came out at 0.865.

In the case of “TGTACTTCATGGACCGGTTTTCCCGGTAATCCGTATTTGGT (site TGTACTTCTAC)”, the “recombinant UMI read abundance (log10)” value is 1.38.

With “TGTAGTGCATGGACCGGTTTTCCCGGTAATCCGTATTTGCC (site TGTAGTGCTGG)”, the “recombinant UMI read abundance (log10)” value came to 1.56.

With “TGTAGTGCATGGACCGGTTTTCCCGGTAATCCGTATTTGCT (site TGTAGTGCTAG)”, the “recombinant UMI read abundance (log10)” value was determined as 1.16.

For the sequence “TGTATCACATGGACCGGTTTTCCCGGTAATCCGTATTTGAA (site TGTATCACTTT)”, the “recombinant UMI read abundance (log10)” value came out at 0.00408.

Take “TGTATCTCATGGACCGGTTTTCCCGGTAATCCGTATTTGGG (site TGTATCTCTCC)”: the “recombinant UMI read abundance (log10)” value was found to be 0.0516.

For the sequence “TGTATGGCATGGACCGGTTTTCCCGGTAATCCGTATTTGAC (site TGTATGGCTGT)”, the “recombinant UMI read abundance (log10)” value was 1.25.

As for “TGTCACCCATGGACCGGTTTTCCCGGTAATCCGTATTTGGC (site TGTCACCCTGC)”, the “recombinant UMI read abundance (log10)” value was 0.

As to “TGTCCAACATGGACCGGTTTTCCCGGTAATCCGTATTTGTA (site AGTCCAACTTA)”, the “recombinant UMI read abundance (log10)” value was determined as 0.0568.

With “TGTCCAACATGGACCGGTTTTCCCGGTAATCCGTATTTGTA (site CGTCCAACTTA)”, the “recombinant UMI read abundance (log10)” value was 0.338.

Turning to “TGTCCAACATGGACCGGTTTTCCCGGTAATCCGTATTTGTA (site GGTCCAACTTA)”, the “recombinant UMI read abundance (log10)” value amounted to 0.0289.

Regarding “TGTCCAACATGGACCGGTTTTCCCGGTAATCCGTATTTGTA (site TGTCCAACTTA)”, the “recombinant UMI read abundance (log10)” value turned out to be 0.208.

As to “TGTCCGGCATGGACCGGTTTTCCCGGTAATCCGTATTTGGC (site TGACCGGCTGC)”, the “recombinant UMI read abundance (log10)” value amounted to 0.

Turning to “TGTCCGGCATGGACCGGTTTTCCCGGTAATCCGTATTTGGC (site TGCCCGGCTGC)”, the “recombinant UMI read abundance (log10)” value was 0.

Consider “TGTCCGGCATGGACCGGTTTTCCCGGTAATCCGTATTTGGC (site TGGCCGGCTGC)”, for which the “recombinant UMI read abundance (log10)” value is 0.

Regarding “TGTCCGGCATGGACCGGTTTTCCCGGTAATCCGTATTTGGC (site TGTCCGGCTGC)”, the “recombinant UMI read abundance (log10)” value turned out to be 0.541.

As to “TGTCGAGCATGGACCGGTTTTCCCGGTAATCCGTATTTGTA (site TGTCGAGCTTA)”, the “recombinant UMI read abundance (log10)” value was found to be 0.92.

With “TGTCTACCATGGACCGGTTTTCCCGGTAATCCGTATTTGCG (site TGTCTACCTCG)”, the “recombinant UMI read abundance (log10)” value is 0.0129.

For the sequence “TGTCTTGCATGGACCGGTTTTCCCGGTAATCCGTATTTGGG (site TGTCTTGCTCC)”, the “recombinant UMI read abundance (log10)” value turned out to be 0.016.

For “TGTGAATCATGGACCGGTTTTCCCGGTAATCCGTATTTGTC (site TGTGAATCTGA)”, the “recombinant UMI read abundance (log10)” value was determined as 0.782.

In the case of “TGTGCCACATGGACCGGTTTTCCCGGTAATCCGTATTTGTT (site TGTGCCACTAA)”, the “recombinant UMI read abundance (log10)” value is 0.0457.

“TGTGCGGCATGGACCGGTTTTCCCGGTAATCCGTATTTGCT (site TATGCGGCTAG)”: the “recombinant UMI read abundance (log10)” value was determined as 0.00771.

Turning to “TGTGCGGCATGGACCGGTTTTCCCGGTAATCCGTATTTGCT (site TCTGCGGCTAG)”, the “recombinant UMI read abundance (log10)” value is 0.00448.

For the sequence “TGTGCGGCATGGACCGGTTTTCCCGGTAATCCGTATTTGCT (site TGTGCGGCTAG)”, the “recombinant UMI read abundance (log10)” value was 0.57.

These data come from the supplement of paper PMC11208160.
